These results are taken from US20080207617A1, “Quinoline Derivatives and Quinazoline Derivatives Inhibiting Autophosphrylation of Flt3 and Medicinal Compositions Containing the Same” (KIRIN BEER KABUSHIKI KAISHA, priority 2002, published 2008).

As usually defined, the IC50 is the midpoint of a concentration-inhibition curve. Read a low IC50 as inhibition by little substance.

One assay relates to MV4-11. Briefly: Cell growth inhibitory test MV4-11 (WST-1). To be noted: Homo sapiens, MV4-11, 72 h, MV4-11 cells, 3 days culture. The assay is classed as cell-based, human. The procedure: Pharmacological Test Example 2
Cell Growth Inhibitory Test
MV4-11 (ATCC number: CRL-9591) as human leukemia cells was seeded in an amount of 3×10^3 using a DMEM medium containing 10% fetal calf serum (purchased from GIBCO) in a 96-well flat bottom plate.
(§1) A solution of a test compound in dimethyl sulfoxide was added to each well and was cultured in a 5% carbon dioxide incubator for 3 days. Three days after the initiation of the culture, 10 μl of a WST-1 solution in Cell Counting Kit (purchased from Wako Pure Chemical Industries, Ltd.) was added to each well for a color reaction. After proper color development, the absorbance was measured with a microplate reader under conditions of measurement wavelength 450 nm and reference wavelength 650 nm. The growth ratio for each well was determined by presuming the absorbance without the addition of the medicament to be 100% growth ratio and the absorbance of the well without seeding of the cells to be 0% growth ratio. The concentration of the test compound was varied on several levels, the cell growth ratio for each case was determined, and the concentration of the test compound necessary for inhibiting 50% of cell growth ratio (IC50) was calculated.

A further assay concerns MOLM13. Nature of the assay: Cell growth inhibitory activities on cultured human leukemia cells MOLM-13 (WST-1). The assay is classed as cell-based. To be noted: Homo sapiens, MOLM-13, 72 h, 3 days culture. The procedure:
Pharmacological Test Example 4
Cell Growth Inhibitory Activities on Cultured Human Leukemia Cells
as §1, with “Human leukemia cells MOLM13 (subdivided from Hayashibara Biochemical Laboratories, Inc.) were seeded in an amount of 3×10^3 using a DMEM medium containing 10% fetal calf serum (purchased from GIBCO) in a 96-well flat bottom plate. A solution” for “A solution”
A general note: Tetrazolium assays rely on reduction of a dye to a coloured formazan, in cell work by metabolically active cells.

Counter-ions that a name gives are not always drawn. Bounds are passed on as bounds.

Take `COc1cc(Oc2ccnc3cc(OC)c(OC)cc23)ccc1NC(=O)NCCC(C)(C)C` [Compound 4, 1-[4-(6,7-Dimethoxy-quinolin-4-yloxy)-2-methoxy-phenyl]-3-(3,3-dimethyl-butyl)-urea]: the IC50 came to 0.889 µM in the assay with MV4-11 and 653 nM with MOLM13.
For `COc1cc2nccc(Oc3ccc(NC(=O)NCCC(C)(C)C)c([N+](=O)[O-])c3)c2cc1OC` [Compound 37, 1-[2-Nitro-4-(6,7-dimethoxy-quinolin-4-yloxy)-phenyl]-3-(3,3-dimethyl-butyl)-urea] the same measures were 0.047 µM and 38 nM.
For `COc1cc2c(Oc3ccc(NC(=O)NCCC(C)(C)C)c(Cl)c3)ccnc2cc1OCCC1CCNCC1` [Compound 49, 1-{2-Chloro-4-[6-methoxy-7-(2-piperidin-4-yl-ethoxy)-quinolin-4-yloxy]-phenyl}-3-(3,3-dimethyl-butyl)-urea] the same measures were 0.207 µM and 224 nM.
The molecule `COc1cc2c(Oc3ccc(NC(=O)NCCC(C)(C)C)c(Cl)c3)ccnc2cc1OCCN1CCCC1` [Compound 48, 1-{2-Chloro-4-[6-methoxy-7-(2-pyrrolidin-1-yl-ethoxy)-quinolin-4-yloxy]-phenyl}-3-(3,3-dimethyl-butyl)-urea] displayed an IC50 in the assay on MV4-11 of 0.217 µM.
Consider `COc1cc2c(Oc3ccc(NC(=O)NCCC(C)(C)C)c(Cl)c3)ccnc2cc1OCCC1CCCCN1` (stereo not shown) [Compound 50, 1-{2-Chloro-4-[6-methoxy-7-(2-piperidin-2-yl-ethoxy)-quinolin-4-yloxy]-phenyl}-3-(3,3-dimethyl-butyl)-urea], for which the results for the IC50 with MV4-11 and in the assay with MOLM13 were 0.224 µM and 243 nM, respectively.
For `COc1cc2ncnc(Oc3ccc(NC(=O)NCCC(C)(C)C)cc3)c2cc1OC` [Compound 36, 1-[4-(6,7-Dimethoxy-quinazolin-4-yloxy)-phenyl]-3-(3,3-dimethyl-butyl)-urea], in that order: less than 0.001 µM and 2 nM.
For `COCCCNC(=O)Nc1ccc(Oc2ccnc3cc(OC)c(OC)cc23)cc1` [Compound 24, 1-[4-(6,7-Dimethoxy-quinolin-4-yloxy)-phenyl]-3-(3-methoxy-propyl)-urea] the same measures were 0.018 µM and 24 nM.
`COc1cc2nccc(Oc3ccc(NC(=O)NCCC4CCCCC4)cc3)c2cc1OC` [Compound 31, 1-(2-Cyclohexyl-ethyl)-3-[4-(6,7-dimethoxy-quinolin-4-yloxy)-phenyl]-urea]: the IC50 in the assay with MV4-11 amounted to 0.002 µM; in the assay with MOLM13, 2 nM.
For `COc1cc2nccc(Oc3ccc(NC(=O)NCCN(C)C)cc3)c2cc1OC` [Compound 25, 1-[4-(6,7-Dimethoxy-quinolin-4-yloxy)-phenyl]-3-(2-dimethylamino-ethyl)-urea] the same measures were 0.066 µM and 258 nM.
For `COc1cc2nccc(Oc3ccc(NC(=O)NCCC(C)(C)C)c(C)c3C)c2cc1OC` [Compound 7, 1-[4-(6,7-Dimethoxy-quinolin-4-yloxy)-2,3-dimethyl-phenyl]-3-(3,3-dimethyl-butyl)-urea] the same measures were 0.558 µM and 593 nM.
For `COc1cc2nccc(Oc3ccc(NC(=O)NCCCC4CCCCC4)cc3)c2cc1OC` [Compound 33, 1-(3-Cyclohexyl-propyl)-3-[4-(6,7-dimethoxy-quinolin-4-yloxy)-phenyl]-urea], in that order: 0.008 µM and 4 nM.
With `COc1cc2nccc(Oc3ccc(NC(=O)NCCC(C)C)cc3)c2cc1OC` [Compound 29, 1-[4-(6,7-Dimethoxy-quinolin-4-yloxy)-phenyl]-3-(3-methyl-butyl)-urea], the values for the IC50 with MV4-11 and in the assay with MOLM13 were 0.001 µM and 3 nM, respectively.
For `COc1cc2c(Oc3ccc(NC(=O)NCCC(C)(C)C)c(Cl)c3)ccnc2cc1OCCCN1CCC(C)CC1` [Compound 52, 1-(2-Chloro-4-{6-methoxy-7-[3-(4-methyl-piperidin-1-yl)-propoxy]-quinolin-4-yloxy}-phenyl)-3-(3,3-dimethyl-butyl)-urea], in that order: 0.184 µM and 188 nM.
As for `COc1cc2c(Oc3ccc(NC(=O)NCCC4CCCCCC4)c(F)c3)ccnc2cc1OCCN1CC(C)OC(C)C1` (stereo not shown) [Compound 71, 1-(2-Cycloheptyl-ethyl)-3-(4-{7-[2-(2,6-dimethyl-morpholin-4-yl)-ethoxy]-6-methoxy-quinolin-4-yloxy}-2-fluoro-phenyl)-urea], the results for the half-inhibitory concentration (IC50) in the assay on MV4-11 and with MOLM13 were 0.015 µM and 27 nM, respectively.
For `COc1cc2nccc(Oc3ccc(NC(=O)NCCC(C)(C)C)c(F)c3)c2cc1OC` [Compound 9, 1-[4-(6,7-Dimethoxy-quinolin-4-yloxy)-2-fluoro-phenyl]-3-(3,3-dimethyl-butyl)-urea hydrochloride] the same measures were 0.008 µM and 24 nM.
For `CNC(=O)Nc1ccc(Oc2ccnc3cc(OC)c(OC)cc23)cc1` [Compound 27, 1-[4-(6,7-Dimethoxy-quinolin-4-yloxy)-phenyl]-3-methyl-urea], in that order: 0.032 µM and 45 nM.
For `COc1cc2c(Oc3ccc(NC(=O)NCCC(C)(C)C)c(F)c3)ccnc2cc1OCCN1C(C)(C)CCCC1(C)C` [Compound 61, 1-(3,3-Dimethyl-butyl)-3-(2-fluoro-4-{6-methoxy-7-[2-(2,2,6,6-tetramethyl-piperidin-1-yl)-ethoxy]-quinolin-4-yloxy}-phenyl)-urea] the same measures were 0.057 µM and 138 nM.
Regarding `CCCNC(=O)Nc1ccc(Oc2ccnc3cc(OC)c(OC)cc23)cc1` [Compound 21, 1-[4-(6,7-Dimethoxy-quinolin-4-yloxy)-phenyl]-3-propyl-urea], the IC50 in the assay with MV4-11 amounted to 0.031 µM; in the assay on MOLM13, 22 nM.
For `COc1cc2c(Oc3ccc(NC(=O)NCCC4CCCC4)cc3F)ccnc2cc1OCCN1CCCCC1` [Compound 59, 1-(2-Cyclopentyl-ethyl)-3-{3-fluoro-4-[6-methoxy-7-(2-piperidin-1-yl-ethoxy)-quinolin-4-yloxy]-phenyl}-urea] the same measures were 0.002 µM and 4 nM.
For `COc1cc2c(Oc3ccc(NC(=O)NCCC(C)(C)C)c(Cl)c3)ccnc2cc1OCCN1CCCCCC1` [Compound 74, 1-{4-[7-(2-Azepan-1-yl-ethoxy)-6-methoxy-quinolin-4-yloxy]-2-chloro-phenyl}-3-(3,3-dimethyl-butyl)-urea] the same measures were 0.255 µM and 244 nM.
For `COc1cc2nccc(Oc3ccc(NC(=O)NCC(C)(C)C)cc3)c2cc1OC` [Compound 32, 1-[4-(6,7-Dimethoxy-quinolin-4-yloxy)-phenyl]-3-(2,2-dimethyl-propyl)-urea], in that order: 0.201 µM and 314 nM.
With `COc1cc2nccc(Oc3ccc(NC(=O)NCCCC(C)(C)C)cc3)c2cc1OC` [Compound 35, 1-[4-(6,7-Dimethoxy-quinolin-4-yloxy)-phenyl]-3-(4,4-dimethyl-pentyl)-urea], the results for the IC50 in the assay on MV4-11 and with MOLM13 were less than 0.001 µM and 3 nM, respectively.
For `CCNC(=O)Nc1ccc(Oc2ccnc3cc(OC)c(OC)cc23)cc1` [Compound 28, 1-[4-(6,7-Dimethoxy-quinolin-4-yloxy)-phenyl]-3-ethyl-urea] the same measures were 0.019 µM and 26 nM.
For `CCCCCNC(=O)Nc1ccc(Oc2ccnc3cc(OC)c(OC)cc23)cc1` [Compound 23, 1-[4-(6,7-Dimethoxy-quinolin-4-yloxy)-phenyl]-3-pentyl-urea], in that order: 0.002 µM and 4 nM.
Regarding `CCCCNC(=O)Nc1ccc(Oc2ccnc3cc(OC)c(OC)cc23)cc1` [Compound 19, 1-Butyl 3-[4-(6,7-dimethoxy-quinolin-4-yloxy)-phenyl]-urea], the values for the IC50 in the assay on MV4-11 and with MOLM13 were 0.006 µM and 10 nM, respectively.
For the molecule `COc1cc2c(Oc3ccc(NC(=O)NCCC(C)(C)C)cc3)ccnc2cc1OCCN1CCOCC1` [Compound 66, 1-(3,3-Dimethyl-butyl)-3-{4-[6-methoxy-7-(2-morpholin-4-yl-ethoxy)-quinolin-4-yloxy]-phenyl}-urea], the figures for the IC50 in the assay with MV4-11 and with MOLM13 were less than 0.001 µM and less than 1 nM, respectively.
For `COc1cc2nccc(Oc3ccc(NC(=O)NC(C)C)cc3)c2cc1OC` [Compound 20, 1-[4-(6,7-Dimethoxy-quinolin-4-yloxy)-phenyl]-3-isopropyl-urea], in that order: 0.031 µM and 39 nM.
On to `COc1cc2c(Oc3ccc(NC(=O)NCCC(C)(C)C)c(Cl)c3)ccnc2cc1OCCN1CCC(C)CC1` [Compound 51, 1-(2-Chloro-4-{6-methoxy-7-[2-(4-methyl-piperidin-1-yl)-ethoxy]-quinolin-4-yloxy}-phenyl)-3-(3,3-dimethyl-butyl)-urea], for which the IC50 in the assay on MV4-11 was found to be 0.211 µM; in the assay with MOLM13, 216 nM.
